“And” between values parts separate entries of the source, which are not always exact repeats. Identical values can stand only once. Counter-ions that a name gives are not always drawn. Like-named read-outs stand apart in the source and are kept apart here.
What was measured:
[1] = cited from earlier work
[2] = test system: mucin immobilized to PC IAM particles; assay: pH and mucin layer thickness dependence of partition ratio on MIC columns (1:2 and 2:1); settings: for k′MIC (1:2): column 1:2, 0.32 μm; for k′MIC (1:2) / k′MIC (2:1): pH 7, Table 9; for (1:2) k′ (pH 3) / (1:2) k′ (pH 5) / (1:2) k′ (pH 7): column 1:2 mucin to PC IAM, 0.32 μm mucin layer; for (1:2) k′ (pH 3) / (2:1) k′ (pH 3): mobile phase pH 3; for (1:2) k′ (pH 5) / (2:1) k′ (pH 5): mobile phase pH 5; for (1:2) k′ (pH 7) / (2:1) k′ (pH 7): mobile phase pH 7; for k′MIC (2:1): column 2:1, 0.36 μm; for (2:1) k′ (pH 3) / (2:1) k′ (pH 5) / (2:1) k′ (pH 7): column 2:1 mucin to PC IAM, 0.36 μm mucin layer
Description: Samples were dissolved in mobile phase solution and filtered (filter pore size, 0.45 μm) prior to injection. […] From this measurement and a measurement of the void volume (t0) the k′MIC could be determined. In addition, from the molecular weight of the compounds, Dm could be determined. These compounds, with the exceptions noted below, were used to generate the column constant (Vm/Vs).
For these reasons, the influence of pH on drug retention times was measured on columns having two different mucin layer thicknesses, 0.32 μm (column prepared with a 1:2 wt % of mucin to PC IAM particles) and 0.36 μm (column prepared with a 2:1 wt % of mucin to PC IAM particles)(Table 8). […] The influence of pH on drug retention time was measured by using different mobile phase buffers adjusted to pH 3, 5 or 7 on either the 0.32 μm or 0.36 μm column.
Capacity factors were calculated from drug retention times collected on columns having two different mucin layer thicknesses, 0.32 μm (column prepared with a 1:2 wt % of mucin to PC IAM particles) and 0.36 μm (column prepared with a 2:1 wt % of mucin to PC IAM particles).

[3] = test system: mucin immobilized to IAM.PC.DD2; assay: HPLC on MIC column (2:1 mucin to PC IAM particles): retention time, k′MIC, derived Km and Peff MIC; settings: for K′MIC / log k′MIC: MIC 2:1; for k′MIC / Retention Time: MIC column 2:1 mucin:IAM, MPS pH 7.4; for Retention Time: isocratic 0.3 ml/min; for Peff MIC (×10^−4 cm/s): determined by linear equation; for Dm: membrane diffusion coefficient calculated from molecular weight
Description: [formula] where Dm is the membrane diffusion coefficient of the solute, Km is the membrane equilibrium constant, and L is the membrane thickness (Stein, W., Transport and Diffusion Across Cell Membranes, Academic Press, Orlando, Fla. (1986)). […] Since molecular weight, MW, is proportional to molecular size, Dm may also written as,
[formula] Thus, Dm can be calculated from the molecular weight. Furthermore, Km is calculated by the following equation, Km−(Vm/Vs)k′, [4] where Vm is the volume of the mobile phase, Vs is the internal volume of the stationary phase, and k′ is the partition ratio (Pidgeon and Ong, Chemtech. June, 38-48 (1995)). The partition ratio is determined by the equation, k′−(tr−to)/to, [5] where tr is the retention time of the drug and to is the void volume of the column. Both tr and to can be experimentally determined in order to obtain k′.
Equation 2 can be used to determine Km for a given MIC medium. Both Dm and L are known from the discussion above, and Peff can be calculated for various drugs having known in vivo absorption. For example, a number of drug permeability coefficients, Peff, derived from in vivo experiments are listed in literature. […] See Example 5 below.

[4] = single-pass perfusions, cited from earlier work
[5] = from literature; cited from earlier work
Caco-2 = settings: from literature, cited from earlier work

SMILES | k′MIC (1:2) [2] | (1:2) k′ (pH 3) [2] | (1:2) k′ (pH 5) [2] | (1:2) k′ (pH 7) [2] | k′MIC (2:1) [2] | (2:1) k′ (pH 3) [2] | (2:1) k′ (pH 5) [2] | (2:1) k′ (pH 7) [2] | K′MIC ([3]; Table 5) | k′MIC [3] | Retention Time [3] | Peff MIC (×10^−4 cm/s) ([3]; Table 5) | Dm [3] | Peff Loc-I-Gut (×10^−4 cm/s) ([4]; Table 5) | δ = log k′MIC − log k′IAM [3] | log k′MIC [3] | log k′IAM [5] | K′MIC ([3]; Table 6) | Peff MIC (×10^−4 cm/s) ([3]; Table 6) | Peff Caco-2 (×10^−6 cm/s) (Caco-2; Table 5) | further results
CCOC(=O)[C@H](CCc1ccccc1)N[C@@H](C)C(=O)N1CCC[C@H]1C(=O)O [enalapril maleate] | 34 | 27.33 | 37.33 | 34.00 | 20.7 | 31.86 | 21.86 | 20.67 | 35.86 | 35.8571 | 2.6 | 0.38 ×10^−4 cm/s | 0.0020 | 0.2 ×10^−4 cm/s | – | – | – | – | – | – | % Absorbed ([1]; Table 5): 60%; Bioavailability ([1]; footnotes of Table 4 that tell the two cimetidine and two enalapril maleate lines apart): ^4Bioavailability = 60%;; percent absorption value ([1]; reported in literature, either of two values): 60 and 100; Retention Time ([3]; listed as Enalapril maleate): 7.8; k′MIC ([3]; listed as Enalapril maleate): 110.429; stability during the HPLC analyses ([3]; two peaks, hydrolyzed and non-hydrolyzed forms): hydrolyzed to enalaprilat; Peff Loc-I-Gut (×10^−4 cm/s) ([4]; Table 9): 0.2 ×10^−4 cm/s
C[C@]12C[C@H](O)[C@H]3[C@@H](CCC4=CC(=O)CC[C@@]43C)[C@@H]1CC[C@@H]2C(=O)CO [corticosterone] | – | 24.00 | 22.33 | 24.00 | – | 20.43 | 20.43 | 24.00 | – | 60.4286 | 4.3 | – | 0.0029 | – | 0.18 | 1.78 | 1.60 | – | – | – | % Absorbed ([1]; Table 7): 100%
Cc1cc(=O)n(-c2ccccc2)n1C [Antipyrine] | 50.7 | 54.00 | 54.00 | 50.67 | 40.7 | 40.43 | 39.00 | 40.67 | 77.57 | 77.5714 | 5.5 | – | 0.0053 | 5.6 ×10^−4 cm/s | 1.91 | 1.89 | −0.02 | – | – | – | % Absorbed ([1]; in vivo): 100%; Peff Loc-I-Gut (×10^−4 cm/s) ([4]; Table 9): 5.6 ×10^−4 cm/s
COCCc1ccc(OCC(O)CNC(C)C)cc1 (stereo not shown) [Metoprolol] | 47.3 | 50.67 | 50.67 | 47.33 | 35.7 | 36.14 | 41.86 | 35.67 | 43 | 43.2857 | 3.1 | 1.21 ×10^−4 cm/s | 0.0015 | – | 1.14 | 1.64 | – | 43.29 | 1.21 ×10^−4 cm/s | 23.7 ×10^−6 cm/s | Peff Caco-2 (×10^−6 cm/s) (Caco-2; Table 6): 23.7 ×10^−6 cm/s
CC(C)NCC(O)COc1cccc2ccccc12 (stereo not shown) [Propranolol] | – | 75.67 | 92.33 | 99.00 | – | 49.00 | 59.00 | 99.00 | 70.43 | 70.4286 | 5.0 | 4.24 ×10^−4 cm/s | 0.0034 | – | 0.10 | 1.85 | 1.75 | 70.43 | 4.24 ×10^−4 cm/s | 21.8 ×10^−6 cm/s | Peff Caco-2 (×10^−6 cm/s) (Caco-2; Table 6): 21.8 ×10^−6 cm/s
NC(=O)N1c2ccccc2C=Cc2ccccc21 [carbamazepine] | – | – | – | – | – | – | – | – | 59.00 | 59.0000 | 4.2 | 2.96 ×10^−4 cm/s | 0.0042 | 4.3 ×10^−4 cm/s | – | – | – | 59.00 | 2.96 ×10^−4 cm/s | 19.9 ×10^−6 cm/s | Peff Loc-I-Gut (×10^−4 cm/s) ([4]; Table 6): 4.3 ×10^−4 cm/s; Peff Caco-2 (×10^−6 cm/s) (Caco-2; Table 6): 19.9 ×10^−6 cm/s

From patent US7659240B2, “Mucin immobilized chromatography” (Vertex Pharmaceuticals Incorporated, priority 2002, dated 2010)
